Literature values as cited in publication PMC2913283 (Bioconjugate chemistry, 2010).

Conditions: initial studies

stability in vitro: not stable in vitro
Substance: Diethylenetriaminepenatacetic acid-(DTPA-Al^18F) complexes
